From patent US11033539B2, “Compounds of formulas (VII), (VIII), (IX), (XI), (XII), (XIII), and (XIV) as muscarinic receptor 4(M4) antagonists for treating neurological diseases” (Neurocrine Biosciences, Inc., priority 2015, dated 2021) come the findings set out here.

The assay addresses human M4 receptor (Homo sapiens (Human), UniProt P08173). Put plainly: Radioligand (tritiated N-methylscopolamine) binding assay, M4. Put shortly:
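Ki from displacement of 1.5 nM [3H]N-methylscopolamine on membranes of CHO cells expressing each human receptor. Twelve compound concentrations (10 μM to […]), 90 min at 37° C in 50 mM HEPES, 100 mM NaCl, 5 mM MgCl2, 1 mM EDTA, pH 7.4. Bound ligand was captured by PEI-treated glass-fiber filtration and counted.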

The mark [1] stands for this setting: Ki against the M4 receptor, membranes from CHO cells expressing human M4, tritiated N-methylscopolamine 1.5 nM, read-out: Ki.

Where two headings read alike, the source gives them in different places.

human M4 receptor, sequence (P08173 whole entry): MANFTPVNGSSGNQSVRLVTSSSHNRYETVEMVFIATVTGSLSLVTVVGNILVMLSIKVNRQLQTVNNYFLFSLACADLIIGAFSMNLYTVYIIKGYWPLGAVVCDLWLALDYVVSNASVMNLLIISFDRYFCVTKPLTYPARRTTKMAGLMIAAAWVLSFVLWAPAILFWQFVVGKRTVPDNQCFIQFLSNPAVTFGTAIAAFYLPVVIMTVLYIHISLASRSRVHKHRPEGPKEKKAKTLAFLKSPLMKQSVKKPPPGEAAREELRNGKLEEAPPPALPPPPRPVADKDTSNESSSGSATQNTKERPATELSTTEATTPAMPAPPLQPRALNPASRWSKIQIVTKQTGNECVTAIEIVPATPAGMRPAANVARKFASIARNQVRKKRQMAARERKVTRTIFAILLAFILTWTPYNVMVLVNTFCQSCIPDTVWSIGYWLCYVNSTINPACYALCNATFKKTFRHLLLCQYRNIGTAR

On to `COc1ccccc1C1CCN(C(=O)NCCC2CCN(Cc3ccccc3)CC2)CC1` [8-6, N-[2-(1-benzylpiperidin-4-yl)ethyl]-4-(2-methoxyphenyl)piperidine-1-carboxamide], for which the Ki (in general, a measure of affinity in units of concentration, obtained from inhibition or displacement) under setting [1] fell in the range of 0.1 to 1 µM.
On the same count and under the same terms, then `N#Cc1cc(Cl)ccc1N1CCN(C(=O)NCCC2CCN(Cc3ccccc3)CC2)CC1` [8-7, N-[2-(1-benzylpiperidin-4-yl)ethyl]-4-(4-chloro-2-cyanophenyl)piperazine-1-carboxamide], with 0.1 to 1 µM; and `O=C(NCCC1CCN(Cc2ccccc2)CC1)N1CCN(c2ccc(OC(F)(F)F)cc2)CC1` [8-8, N-[2-(1-benzylpiperidin-4-yl)ethyl]-4-[4-(trifluoromethoxy)phenyl]piperazine-1-carboxamide], with 0.01 to 0.1 µM; and `CN(C(=O)NCCC1CCN(Cc2ccccc2)CC1)C1CCN(c2ccc(Br)cn2)C1` (stereo not drawn) [8-9, 1-[2-(1-benzylpiperidin-4-yl)ethyl]-3-[1-(5-bromopyridin-2-yl)pyrrolidin-3-yl]-3-methylurea], with 0.01 to 0.1 µM.
Turning to `O=C(NCCC1CCN(Cc2ccccc2)CC1)N1CCC(c2csc3ccccc23)CC1` [8-10, 4-(1-benzothiophen-3-yl)-N-[2-(1-benzylpiperidin-4-yl)ethyl]piperidine-1-carboxamide], the inhibition constant (Ki) under setting [1] lay in the range of 0.01 to 0.1 µM.
Same read-out and setting: the same measure for `O=C(NCCC1CCN(Cc2ccccc2)CC1)N1CCN(c2cccc(Cl)c2)CC1` [8-11, N-[2-(1-benzylpiperidin-4-yl)ethyl]-4-(3-chlorophenyl)piperazine-1-carboxamide]: 0.01 to 0.1 µM; for `N#Cc1cc(C(F)(F)F)ccc1N1CCN(C(=O)NCCC2CCN(Cc3ccccc3)CC2)CC1` [8-12, N-[2-(1-benzylpiperidin-4-yl)ethyl]-4-[2-cyano-4-(trifluoromethyl)phenyl]piperazine-1-carboxamide]: 0.01 to 0.1 µM.
In the case of `O=C(NCCC1CCN(Cc2ccccc2)CC1)N1CCN(c2ccc(Cl)cc2)CC1` [8-13, N-[2-(1-benzylpiperidin-4-yl)ethyl]-4-(4-chlorophenyl)piperazine-1-carboxamide], the inhibitory constant (Ki) under setting [1] fell in the range of 0.01 to 0.1 µM.
Same read-out and setting: the same measure for `O=C(NCCC1CCN(Cc2ccccc2)CC1)N1CCC(c2nc3ccccc3s2)CC1` [8-14, 4-(1,3-benzothiazol-2-yl)-N-[2-(1-benzylpiperidin-4-yl)ethyl]piperidine-1-carboxamide]: 0.01 to 0.1 µM; for `O=C(NCCC1CCN(Cc2ccccc2)CC1)N1CCN(c2ncc(C(F)(F)F)cc2Cl)CC1` [8-15, N-[2-(1-benzylpiperidin-4-yl)ethyl]-4-[3-chloro-5-(trifluoromethyl)pyridin-2-yl]piperazine-1-carboxamide]: 0.01 to 0.1 µM.
Consider `CN(C(=O)NCCC1CCN(Cc2ccccc2)CC1)C1CCN(c2ncc(C(F)(F)F)cc2Cl)C1` (stereo not drawn) [8-16, 1-[2-(1-benzylpiperidin-4-yl)ethyl]-3-{1-[3-chloro-5-(trifluoromethyl)pyridin-2-yl]pyrrolidin-3-yl}-3-methylurea], for which the Ki under setting [1] lay in the range of 0.01 to 0.1 µM.
As to `O=C(NCCC1CCN(Cc2ccccc2)CC1)N1CCN(c2cccc(C(F)(F)F)c2)CC1` [8-17, N-[2-(1-benzylpiperidin-4-yl)ethyl]-4-[3-(trifluoromethyl)phenyl]piperazine-1-carboxamide], the inhibition constant (Ki) under setting [1] is 0.01 to 0.1 µM.
Regarding `N#Cc1cc(F)cc(N2CCN(C(=O)NCCC3CCN(Cc4ccccc4)CC3)CC2)c1` [8-18, N-[2-(1-benzylpiperidin-4-yl)ethyl]-4-(3-cyano-5-fluorophenyl)piperazine-1-carboxamide], the inhibition constant (Ki) under setting [1] was 0.01 to 0.1 µM.
On the same count and under the same terms, the same measure for `O=C(NCCC1CCN(Cc2ccccc2)CC1)N1CCC(O)(c2cccc(C(F)(F)F)c2)CC1` [8-19, N-[2-(1-benzylpiperidin-4-yl)ethyl]-4-hydroxy-4-[3-(trifluoromethyl)phenyl]piperidine-1-carboxamide]: 0.01 to 0.1 µM.
`O=C(NCCC1CCN(Cc2ccccc2)CC1)N1CCC(c2ccc(F)cc2)CC1` [8-20, N-[2-(1-benzylpiperidin-4-yl)ethyl]-4-(4-fluorophenyl)piperidine-1-carboxamide]: the Ki under setting [1] was in the range of 0.1 to 1 µM.
Consider `CN(C(=O)NCCC1CCN(Cc2ccccc2)CC1)C1CCN(c2ccc(C(F)(F)F)cc2)C1` (stereo not drawn) [8-21, 1-[2-(1-benzylpiperidin-4-yl)ethyl]-3-methyl-3-{1-[4-(trifluoromethyl)phenyl]pyrrolidin-3-yl}urea], for which the Ki under setting [1] is 0.1 to 1 µM.
Turning to `N#Cc1cc(N2CCN(C(=O)NCCC3CCN(Cc4ccccc4)CC3)CC2)ccc1F` [8-22, N-[2-(1-benzylpiperidin-4-yl)ethyl]-4-(3-cyano-4-fluorophenyl)piperazine-1-carboxamide], the Ki under setting [1] is 0.1 to 1 µM.
Turning to `O=C(NCCC1CCN(Cc2ccccc2)CC1)N1CCC(O)(c2ccc(Cl)cc2)CC1` [8-23, N-[2-(1-benzylpiperidin-4-yl)ethyl]-4-(4-chlorophenyl)-4-hydroxypiperidine-1-carboxamide], the Ki under setting [1] was in the range of 0.1 to 1 µM.
`COc1ccc(C2CCN(C(=O)NCCC3CCN(Cc4ccccc4)CC3)CC2)cc1` [8-24, N-[2-(1-benzylpiperidin-4-yl)ethyl]-4-(4-methoxyphenyl)piperidine-1-carboxamide]: the inhibition constant (Ki) under setting [1] fell in the range of 0.1 to 1 µM.
`N#Cc1cccc(N2CCN(C(=O)NCCC3CCN(Cc4ccccc4)CC3)CC2)c1` [8-25, N-[2-(1-benzylpiperidin-4-yl)ethyl]-4-(3-cyanophenyl)piperazine-1-carboxamide]: under setting [1], the inhibition constant (Ki) lay within 0.1 to 1 µM.
With `O=C(NCCC1CCN(Cc2ccccc2)CC1)N1CCC(c2cccc(F)c2)CC1` [8-26, N-[2-(1-benzylpiperidin-4-yl)ethyl]-4-(3-fluorophenyl)piperidine-1-carboxamide], the Ki under setting [1] is 0.1 to 1 µM.
On to `N#Cc1ccc(N2CCN(C(=O)NCCC3CCN(Cc4ccccc4)CC3)CC2)cc1` [8-27, N-[2-(1-benzylpiperidin-4-yl)ethyl]-4-(4-cyanophenyl)piperazine-1-carboxamide], for which the Ki under setting [1] lay in the range of 0.1 to 1 µM.
With `O=C(NCCC1CCN(Cc2ccccc2)CC1)N1CCN(c2cccc(O)c2)CC1` [8-28, N-[2-(1-benzylpiperidin-4-yl)ethyl]-4-(3-hydroxyphenyl)piperazine-1-carboxamide], the Ki under setting [1] was in the range of 0.1 to 1 µM.
On the same count and under the same terms, the same measure for `O=C(NCCC1CCN(Cc2ccccc2)CC1)N1CCN(c2ncccn2)CC1` [8-29, N-[2-(1-benzylpiperidin-4-yl)ethyl]-4-(pyrimidin-2-yl)piperazine-1-carboxamide]: 0.1 to 1 µM.
As for `O=C(NCCC1CCN(Cc2ccccc2)CC1)N1CCC(c2c[nH]c3ccccc23)CC1` [8-30, N-[2-(1-benzylpiperidin-4-yl)ethyl]-4-(1H-indol-3-yl)piperidine-1-carboxamide], under setting [1], the Ki fell in the range of 0.1 to 1 µM.
With `CC(C)c1noc(C2CCN(C(=O)NCCC3CCN(Cc4ccccc4)CC3)CC2)n1` [8-31, N-[2-(1-benzylpiperidin-4-yl)ethyl]-4-[3-(propan-2-yl)-1,2,4-oxadiazol-5-yl]piperidine-1-carboxamide], the inhibitory constant (Ki) under setting [1] was in the range of 0.1 to 1 µM.
The same measure, in the same setting: the same measure for `O=C(NCCC1CCN(Cc2ccccc2)CC1)N1CCC(c2ccccc2F)CC1` [8-32, N-[2-(1-benzylpiperidin-4-yl)ethyl]-4-(2-fluorophenyl)piperidine-1-carboxamide]: 0.1 to 1 µM.
In turn, `N#CC1(c2ccccc2)CCN(C(=O)NCCC2CCN(Cc3ccccc3)CC2)CC1` [8-33, N-[2-(1-benzylpiperidin-4-yl)ethyl]-4-cyano-4-phenylpiperidine-1-carboxamide] gave a Ki of 0.1 to 1 µM.
`O=C(NCCC1CCN(Cc2ccccc2)CC1)N1CCN(c2ccccc2F)CC1` [8-34, N-[2-(1-benzylpiperidin-4-yl)ethyl]-4-(2-fluorophenyl)piperazine-1-carboxamide]: the Ki under setting [1] was 0.1 to 1 µM.
Still for that read-out and setting: then `O=C(NCCC1CCN(Cc2ccccc2)CC1)N1CCN(c2ccc(F)cc2)CC1` [8-35, N-[2-(1-benzylpiperidin-4-yl)ethyl]-4-(4-fluorophenyl)piperazine-1-carboxamide], with 0.1 to 1 µM; and `CC(=O)c1ccc(N2CCN(C(=O)NCCC3CCN(Cc4ccccc4)CC3)CC2)cc1` [8-36, 4-(4-acetylphenyl)-N-[2-(1-benzylpiperidin-4-yl)ethyl]piperazine-1-carboxamide], with 0.1 to 1 µM.
On the same count and under the same terms, the same measure for `CCN1CCN(C2CCN(C(=O)NCCC3CCN(Cc4ccccc4)CC3)CC2)CC1` [8-37, N-[2-(1-benzylpiperidin-4-yl)ethyl]-4-(4-ethylpiperazin-1-yl)piperidine-1-carboxamide]: 0.1 to 1 µM.
Still for that read-out and setting: then `O=C(NCCC1CCN(Cc2ccccc2)CC1)N1CCC(c2ccccc2)CC1` [8-38, N-[2-(1-benzylpiperidin-4-yl)ethyl]-4-phenylpiperidine-1-carboxamide], with 0.1 to 1 µM; and `O=C(NCCC1CCN(Cc2ccccc2)CC1)NC1CCN(c2ccc(F)cc2)CC1` [8-39, 1-[2-(1-benzylpiperidin-4-yl)ethyl]-3-[1-(4-fluorophenyl)piperidin-4-yl]urea], with 0.1 to 1 µM; and `N#Cc1cccc(N2CCC(NC(=O)NCCC3CCN(Cc4ccccc4)CC3)CC2)c1` [8-40, 3-[2-(1-benzylpiperidin-4-yl)ethyl]-1-[1-(3-cyanophenyl)piperidin-4-yl]urea], with 0.1 to 1 µM.
As for `O=C(NCCC1CCN(Cc2ccccc2)CC1)Nc1ccc(Oc2ccccc2)cc1` [8-41, 3-[2-(1-benzylpiperidin-4-yl)ethyl]-1-(4-phenoxyphenyl)urea], the inhibitory constant (Ki) under setting [1] is 0.1 to 1 µM.
Take `COc1ccccc1C1(O)CCN(C(=O)NCCC2CCN(Cc3ccccc3)CC2)CC1` [8-42, N-[2-(1-benzylpiperidin-4-yl)ethyl]-4-hydroxy-4-(2-methoxyphenyl)piperidine-1-carboxamide]: under setting [1], the Ki is 0.1 to 1 µM.
In the case of `Cc1ccc(N2CCN(C(=O)NCCC3CCN(Cc4ccccc4)CC3)CC2)c(CO)c1` [8-43, N-[2-(1-benzylpiperidin-4-yl)ethyl]-4-[2-(hydroxymethyl)-4-methylphenyl]piperazine-1-carboxamide], the Ki under setting [1] lay within 0.1 to 1 µM.
On the same count and under the same terms, the same measure for `O=C(NCCC1CCN(Cc2ccccc2)CC1)N1CCC(N2Cc3ccccc3NC2=O)CC1` [8-44, N-[2-(1-benzylpiperidin-4-yl)ethyl]-4-(2-oxo-1,2,3,4-tetrahydroquinazolin-3-yl)piperidine-1-carboxamide]: 0.1 to 1 µM.
